± gives the expanded uncertainty stated by the source.
Settings: Liquid, Closed cell (Static) method

Row | vapor or sublimation pressure (273.15 K) | vapor or sublimation pressure (283.15 K) | vapor or sublimation pressure (293.15 K) | vapor or sublimation pressure (303.15 K) | vapor or sublimation pressure (313.15 K) | vapor or sublimation pressure (323.15 K) | vapor or sublimation pressure (333.15 K) | vapor or sublimation pressure (343.15 K) | vapor or sublimation pressure (353.15 K) | vapor or sublimation pressure (363.15 K) | SMILES
1 | 0.026 ± 0.002 kPa | 0.064 ± 0.005 kPa | 0.144 ± 0.01 kPa | 0.299 ± 0.019 kPa | 0.585 ± 0.037 kPa | 1.081 ± 0.028 kPa | 1.902 ± 0.023 kPa | 3.206 ± 0.032 kPa | 5.201 ± 0.045 kPa | 8.153 ± 0.065 kPa | CCC(N)CCN (stereo not given) [1,3-pentanediamine]
2 | 0.004 ± 0.001 kPa | 0.011 ± 0.001 kPa | 0.028 ± 0.002 kPa | 0.065 ± 0.005 kPa | 0.137 ± 0.009 kPa | 0.274 ± 0.017 kPa | 0.519 ± 0.033 kPa | 0.934 ± 0.024 kPa | 1.611 ± 0.022 kPa | 2.67 ± 0.028 kPa | CC(CN)CCCN (stereo not given) [2-methyl-1,5-pentanediamine]

Source: the NIST ThermoML archive (doi:10.1016/j.jct.2014.12.008)
